According to paper PMC11005723, “Development of Complementary Photo‐arginine/lysine to Promote Discovery of Arg/Lys hPTMs Interactomes” (Advanced Science, 2024):

Test system: HEK293T nuclear lysates
Experiment: SILAC‐based pull‐down proteomics H4K5me2/H4K5 (probes 7/5)
Type: binding, human
Conditions: for E6 log2 (H4K5me2/H4K5): run E6; for F6 log2 (H4K5me2/H4K5): run F6

Substance: probe 7: H4K5me2 peptide probe with photo‐arginine R(dz) and K(biotin) (SGRGKGGKGLGKGGK; photo-arginine R(dz) at 3; dimethyl-lysine at 5; K(biotin) at 15)
- proteins recruited (SILAC proteomics H4K5me2/H4K5) (365 nm UV 30 min, streptavidin enrichment, n = 2): could recruit L3MBTL2
- E6 log2 (H4K5me2/H4K5) (protein A0A0U1RR22 PACSIN2): 0.1208
- F6 log2 (H4K5me2/H4K5) (protein A0A0U1RR22 PACSIN2): -0.1109
- E6 log2 (H4K5me2/H4K5) (protein A0A2R8Y855 SMARCE1): 0.07695
- F6 log2 (H4K5me2/H4K5) (protein A0A2R8Y855 SMARCE1): 0.03141
- E6 log2 (H4K5me2/H4K5) (protein A0A087WY61 NUMA1): 0.1401
- F6 log2 (H4K5me2/H4K5) (protein A0A087WY61 NUMA1): 0.3015
- E6 log2 (H4K5me2/H4K5) (protein A6NLN1 PTBP1): 0.07938
- F6 log2 (H4K5me2/H4K5) (protein A6NLN1 PTBP1): -0.02591
- E6 log2 (H4K5me2/H4K5) (protein B4DY09 ILF2): 0.08111
- F6 log2 (H4K5me2/H4K5) (protein B4DY09 ILF2): 0.1752
- E6 log2 (H4K5me2/H4K5) (protein B5MCF9 PES1): 0.1415
- F6 log2 (H4K5me2/H4K5) (protein B5MCF9 PES1): 0.1164
- E6 log2 (H4K5me2/H4K5) (protein E7ETZ4 BZW2): 0.1449
- F6 log2 (H4K5me2/H4K5) (protein E7ETZ4 BZW2): -0.03577
- E6 log2 (H4K5me2/H4K5) (protein E9PKG1 PRMT1): 0.1534
- F6 log2 (H4K5me2/H4K5) (protein E9PKG1 PRMT1): 0.23
- E6 log2 (H4K5me2/H4K5) (protein H7C3T4 PRDX4): 0.1102
- F6 log2 (H4K5me2/H4K5) (protein H7C3T4 PRDX4): 0.1589
- E6 log2 (H4K5me2/H4K5) (protein J3QR09 RPL19): 0.1467
- F6 log2 (H4K5me2/H4K5) (protein J3QR09 RPL19): -0.9956
- E6 log2 (H4K5me2/H4K5) (protein M0R3F6 SUGP2): 0.09539
- F6 log2 (H4K5me2/H4K5) (protein M0R3F6 SUGP2): 0.1115
- E6 log2 (H4K5me2/H4K5) (protein O00567 NOP56): 0.1426
- F6 log2 (H4K5me2/H4K5) (protein O00567 NOP56): -0.1862
- E6 log2 (H4K5me2/H4K5) (protein O14654 IRS4): 0.1705
- F6 log2 (H4K5me2/H4K5) (protein O14654 IRS4): -0.09217
- E6 log2 (H4K5me2/H4K5) (protein O14980 XPO1): 0.1332
- F6 log2 (H4K5me2/H4K5) (protein O14980 XPO1): 0.2789
- E6 log2 (H4K5me2/H4K5) (protein O43663 PRC1): 0.1243
- F6 log2 (H4K5me2/H4K5) (protein O43663 PRC1): 0.05206
- E6 log2 (H4K5me2/H4K5) (protein O43670 ZNF207): 0.07954
- F6 log2 (H4K5me2/H4K5) (protein O43670 ZNF207): 0.2082
- E6 log2 (H4K5me2/H4K5) (protein O60216 RAD21): 0.09859
- F6 log2 (H4K5me2/H4K5) (protein O60216 RAD21): -0.00427
- E6 log2 (H4K5me2/H4K5) (protein O60264 SMARCA5): 0.1187
- F6 log2 (H4K5me2/H4K5) (protein O60264 SMARCA5): 0.0006909
- E6 log2 (H4K5me2/H4K5) (protein O75717 WDHD1): 0.1724
- F6 log2 (H4K5me2/H4K5) (protein O75717 WDHD1): 0.09518
- E6 log2 (H4K5me2/H4K5) (protein O95218 ZRANB2): 0.07138
- F6 log2 (H4K5me2/H4K5) (protein O95218 ZRANB2): 0.02934
- E6 log2 (H4K5me2/H4K5) (protein O95239 KIF4A): 0.09061
- F6 log2 (H4K5me2/H4K5) (protein O95239 KIF4A): 0.09527
- E6 log2 (H4K5me2/H4K5) (protein P04843 RPN1): 0.0606
- F6 log2 (H4K5me2/H4K5) (protein P04843 RPN1): -0.2414
- E6 log2 (H4K5me2/H4K5) (protein P08107 HSPA1A): 0.1665
- F6 log2 (H4K5me2/H4K5) (protein P08107 HSPA1A): 0.1744
- E6 log2 (H4K5me2/H4K5) (protein P11387 TOP1): 0.0619
- F6 log2 (H4K5me2/H4K5) (protein P11387 TOP1): 0.02763
- E6 log2 (H4K5me2/H4K5) (protein P12081 HARS): 0.08516
- F6 log2 (H4K5me2/H4K5) (protein P12081 HARS): -0.01799
- E6 log2 (H4K5me2/H4K5) (protein P13010 XRCC5): 0.1114
- F6 log2 (H4K5me2/H4K5) (protein P13010 XRCC5): 0.1089
- E6 log2 (H4K5me2/H4K5) (protein P17028 ZNF24): 0.05262
- F6 log2 (H4K5me2/H4K5) (protein P17028 ZNF24): 0.1336
- E6 log2 (H4K5me2/H4K5) (protein P22314 UBA1): 0.1022
- F6 log2 (H4K5me2/H4K5) (protein P22314 UBA1): 0.2143
- E6 log2 (H4K5me2/H4K5) (protein P26358 DNMT1): 0.1405
- F6 log2 (H4K5me2/H4K5) (protein P26358 DNMT1): 0.2161
- E6 log2 (H4K5me2/H4K5) (protein P26641 EEF1G): 0.08126
- F6 log2 (H4K5me2/H4K5) (protein P26641 EEF1G): 0.1297
- E6 log2 (H4K5me2/H4K5) (protein P29692 EEF1D): 0.1014
- F6 log2 (H4K5me2/H4K5) (protein P29692 EEF1D): -0.2527
- E6 log2 (H4K5me2/H4K5) (protein P31689 DNAJA1): 0.1011
- F6 log2 (H4K5me2/H4K5) (protein P31689 DNAJA1): 0.04124
- E6 log2 (H4K5me2/H4K5) (protein P46109 CRKL): 0.0665
- F6 log2 (H4K5me2/H4K5) (protein P46109 CRKL): -0.05223
- E6 log2 (H4K5me2/H4K5) (protein P49411 TUFM): 0.1754
- F6 log2 (H4K5me2/H4K5) (protein P49411 TUFM): 0.2878
- E6 log2 (H4K5me2/H4K5) (protein P49792 RANBP2): 0.07412
- F6 log2 (H4K5me2/H4K5) (protein P49792 RANBP2): 0.1736
- E6 log2 (H4K5me2/H4K5) (protein P49915 GMPS): 0.05379
- F6 log2 (H4K5me2/H4K5) (protein P49915 GMPS): 0.04262
- E6 log2 (H4K5me2/H4K5) (protein P51991 HNRNPA3): 0.1036
- F6 log2 (H4K5me2/H4K5) (protein P51991 HNRNPA3): 0.2517
- E6 log2 (H4K5me2/H4K5) (protein P52272 HNRNPM): 0.1368
- F6 log2 (H4K5me2/H4K5) (protein P52272 HNRNPM): 0.1164
- E6 log2 (H4K5me2/H4K5) (protein P52597 HNRNPF): 0.1056
- F6 log2 (H4K5me2/H4K5) (protein P52597 HNRNPF): 0.253
- E6 log2 (H4K5me2/H4K5) (protein P52948 NUP98): 0.08442
- F6 log2 (H4K5me2/H4K5) (protein P52948 NUP98): -0.03692
- E6 log2 (H4K5me2/H4K5) (protein P55072 VCP): 0.1596
- F6 log2 (H4K5me2/H4K5) (protein P55072 VCP): 0.3874
- E6 log2 (H4K5me2/H4K5) (protein P62258 YWHAE): 0.1303
- F6 log2 (H4K5me2/H4K5) (protein P62258 YWHAE): -0.03753
- E6 log2 (H4K5me2/H4K5) (protein P62979 RPS27A): 0.1537
- F6 log2 (H4K5me2/H4K5) (protein P62979 RPS27A): -0.5244
- E6 log2 (H4K5me2/H4K5) (protein P63167 DYNLL1): 0.05641
- F6 log2 (H4K5me2/H4K5) (protein P63167 DYNLL1): 0.2614
- E6 log2 (H4K5me2/H4K5) (protein P67870 CSNK2B): 0.1418
- F6 log2 (H4K5me2/H4K5) (protein P67870 CSNK2B): -0.3988
- E6 log2 (H4K5me2/H4K5) (protein P78347 GTF2I): 0.1733
- F6 log2 (H4K5me2/H4K5) (protein P78347 GTF2I): 0.08348
- E6 log2 (H4K5me2/H4K5) (protein P78371 CCT2): 0.07998
- F6 log2 (H4K5me2/H4K5) (protein P78371 CCT2): 0.282
- E6 log2 (H4K5me2/H4K5) (protein P84103 SRSF3): 0.08043
- F6 log2 (H4K5me2/H4K5) (protein P84103 SRSF3): -0.102
- E6 log2 (H4K5me2/H4K5) (protein P85037 FOXK1): 0.1575
- F6 log2 (H4K5me2/H4K5) (protein P85037 FOXK1): -0.07311
- E6 log2 (H4K5me2/H4K5) (protein Q5SY16 NOL9): 0.1325
